Source: US20080311126A1, “Antisense Oligonucleotides Directed to Ribonucleotide Reducatase R2 and Uses Thereof in Combination Therapies for the Treatment of Cancer” (Genesense Technologies, Inc, priority 2004, published 2008)
Oligonucleotides are written 5' to 3', each unit as a sugar letter and its base; * is a phosphorothioate linkage, no mark a phosphodiester; rarer units and linkages stand in square brackets, end groups in braces. Plain capitals give the bases only. d = 2'-deoxy (DNA)

How the values were obtained:
Assay type in all cases: cell-based, human
[1] = tested on: T24 bladder cell carcinoma; assay: Relative colony forming efficiency (Example 17, Table 13); conditions: averages of 2-8 determinations
Summary of the method: (§1)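 Phosphorothioate antisense oligonucleotides were delivered to tumour cell cultures with 2.5 μg DOTMA/DOPE (Lipofectin) over four hours, at 0.2 μM unless otherwise indicated. Surviving colonies were stained with methylene blue and scored. Values are % inhibition of colony formation relative to lipofectin-only controls.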

A549 lung cell carcinoma = assay: as above; conditions: averages of 2-8 determinations
Summary of the method: as §1

[2] = tested on: T-47D breast ductal carcinoma; assay: as above; conditions: averages of 2-8 determinations
Summary of the method: as §1

[3] = tested on: H596 lung adenosquamous carcinoma cells; assay: as above; conditions: averages of 2-8 determinations
Summary of the method: as §1

[4] = tested on: MDA PaCa-2 pancreatic cell carcinoma; assay: as above; conditions: MIA PaCa-2 pancreatic cell carcinoma; averages of 2-8 determinations
Summary of the method: as §1

[5] = tested on: HepG2 hepatocellular carcinoma; assay: as above; conditions: averages of 2-8 determinations
Summary of the method: as §1

[6] = tested on: HCT116 colon cell carcinoma; assay: as above; conditions: averages of 2-8 determinations
Summary of the method: as §1

[7] = tested on: PC-3 prostrate cell adenocarcinoma; assay: as above; conditions: averages of 2-8 determinations
Summary of the method: as §1

[8] = tested on: MDA-MB-231 breast cell adenocarcinoma; assay: as above; conditions: averages of 2-8 determinations
Summary of the method: as §1

Hela S3 cells [9] = assay: Relative colony forming efficiency, lipofectin +/- oligonucleotide 4 hours; conditions: Hela S3 cervix carcinoma cells; averages of 2-8 determinations
Summary of the method: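 HeLa S3 cells were exposed to phosphorothioate antisense oligonucleotide (0.2 μM unless stated) with lipofectin for 4 h, then grown 7–10 days in 10% FBS medium. Methylene blue-stained colonies were counted and expressed as percent survival relative to lipofectin-only controls.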

Hela 1 mM cells = assay: Sensitization to chemotherapeutics by AS-II-2229B-20, relative colony forming efficiency; conditions: HeLa 1 mM
Method: (§2) Colony forming efficiency was determined using standard protocols. Briefly, the cells were cultured for 24 hours at 37° C. in growth medium with 10% fetal bovine serum. The cells were washed in 5 ml phosphate buffered saline, pH 7.2, once prior to lipofectin +/−oligonucleotide treatment.
(§3) The test oligonucleotides were added to cell cultures in the presence of 2.5 μg of DOTMA/DOPE (Lipofectin; Life Technologies, Inc.) for four hours. The oligonucleotide was tested at 0.2 μM unless otherwise indicated. Controls were the cultures treated with lipofectin but without the oligonucleotide. After 4 hours the medium containing the oligonucleotide was removed and washed with 5 ml of growth medium. The cells were then cultured in growth medium containing 10% fetal bovine serum for seven to ten days. Surviving cells were visualized by methylene blue staining, and colonies were scored. In some experiments cell aliquots were removed from the culture and viability was determined using the trypan blue exclusion test. Results were analyzed as percent of surviving cells compared to control cells.
(§4) Treatment of human tumour cells with very low concentrations of short antisense sequences was tested to determine if these constructs could sensitize the tumour cells to inhibitory effects of other chemotherapeutic drugs.

Hela S3 cells [10] = assay: as above; conditions: HeLa S3
Method: as §2, §3, §4

[11] = drug 40 μM, with AS-II-2229B-20 0.02 μM
[12] = drug 40 μM, without AS-II-2229B-20
[13] = drug 60 μM, with AS-II-2229B-20 0.02 μM
[14] = drug 60 μM, without AS-II-2229B-20
[15] = drug 20 μM, with AS-II-2229B-20 0.02 μM
[16] = drug 20 μM, without AS-II-2229B-20

| Molecule | Reduced relative colony forming efficiency, T24 (% inhibition of colony forming ability) [1] | Reduced relative colony forming efficiency, A549 (% inhibition of colony forming ability) (A549 lung cell carcinoma) | Reduced relative colony forming efficiency, T-47D (% inhibition of colony forming ability) [2] | Reduced relative colony forming efficiency, 11596 (% inhibition of colony forming ability) [3] | Reduced relative colony forming efficiency, MIA PaCa-2 (% inhibition of colony forming ability) [4] | Reduced relative colony forming efficiency, HepG2 (% inhibition of colony forming ability) [5] | Reduced relative colony forming efficiency, HCT116 (% inhibition of colony forming ability) [6] | Reduced relative colony forming efficiency, PC-3 (% inhibition of colony forming ability) [7] | Reduced relative colony forming efficiency, MDA-MB-231 (% inhibition of colony forming ability) [8] | Reduced relative colony forming efficiency, Hela S3 (% inhibition of colony forming ability) (Hela S3 cells [9]) | other results |
| --- | --- | --- | --- | --- | --- | --- | --- | --- | --- | --- | --- |
| GGCGACCCCTCACTCCAGCA (antisense dG*dG*dC*dG*dA*dC*dC*dC*dC*dT*dC*dA*dC*dT*dC*dC*dA*dG*dC*dA) [AS-II-114-20] | 87.45% | 83.51% | 90.83% | 46.3% | 90.05% | 78.72% | 86.1% | 92.66% | 76.22% | 79.25% |  |
| CGGAGGGAGAGCATAGTGGA (antisense dC*dG*dG*dA*dG*dG*dG*dA*dG*dA*dG*dC*dA*dT*dA*dG*dT*dG*dG*dA) [AS-II-189-20] | 18.57% | 76.57% | 96.63% | 26.15% | 70.52% | 57.86% | 86.78% | 73.12% | 39.86% | 76.67% |  |
| GCTATTATCGCCGCCGTGAG (antisense dG*dC*dT*dA*dT*dT*dA*dT*dC*dG*dC*dC*dG*dC*dC*dG*dT*dG*dA*dG) [AS-II-1773-20] | 15.19% | 70.11% | 84.38% | 66.04% | 45.68% | 58.19% | 75.58% | 70.04% | 44.76% | 80.27% |  |
| CCCAGGACACTACACAAGCC (antisense dC*dC*dC*dA*dG*dG*dA*dC*dA*dC*dT*dA*dC*dA*dC*dA*dA*dG*dC*dC) [AS-II-2026-20] | 95.46% | 88.81% | 93.41% | 84.16% | 87.65% | 94.54% | 81.47% | 95.29% | 77.1% | 83.79% |  |
| CN(Cc1cnc2nc(N)nc(N)c2n1)c1ccc(C(=O)N[C@@H](CCC(=O)O)C(=O)O)cc1 [MTX, methotrexate] |  |  |  |  |  |  |  |  |  |  | Relative colony Forming Efficiency (Hela 1 mM cells; [11]): 6.5 ± 5.5; Relative colony Forming Efficiency (Hela 1 mM cells; [12]): 28 ± 10; Relative colony Forming Efficiency (Hela 1 mM cells; [13]): 3.5 ± 0.5; Relative colony Forming Efficiency (Hela 1 mM cells; [14]): 12 ± 0.5; Relative colony Forming Efficiency (Hela S3 cells [10]; [11]): 25 ± 5; Relative colony Forming Efficiency (Hela S3 cells [10]; [12]): 118 ± 32; Relative colony Forming Efficiency (Hela S3 cells [10]; [13]): 0; Relative colony Forming Efficiency (Hela S3 cells [10]; [14]): 116 ± 13 |
| AS-II-1560.20 (antisense dG*dT*dA*dA*dG*dT*dC*dA*dC*dA*dG*dC*dC*dA*dG*dC*dC*dA*dG*dG) | 32.49% | 84.19% | 86.6% | 71.16% | 33.3% | 73.63% | 85.81% | 78.37% | 46.15% | 82.16% |  |
| G*CG*AAG*CAG*AGC*GAG*CAGC*C (antisense dG*dCdG*dAdAdG*dCdAdG*dAdGdC*dGdAdG*dCdAdGdC*dC) [AS-II-163-20] | 5.49% | 37.13% | 9.81% | 32.08% | 9.88% | 18.64% | 29.05% | 7.14% | 22.73% | 45.8% |  |
| O=C(O)C[C@H](NC(=O)CP(=O)(O)O)C(=O)O [PALA, N-(phosphonacetyl)-L-aspartate] |  |  |  |  |  |  |  |  |  |  | Relative colony Forming Efficiency (Hela 1 mM cells; [15]): 108 ± 7.5; Relative colony Forming Efficiency (Hela 1 mM cells; [16]): 377 ± 21; Relative colony Forming Efficiency (Hela 1 mM cells; drug 30 μM, with AS-II-2229B-20 0.02 μM): 101 ± 2.0; Relative colony Forming Efficiency (Hela 1 mM cells; drug 30 μM, without AS-II-2229B-20): 311 ± 9.5; Relative colony Forming Efficiency (Hela S3 cells [10]; [15]): 90 ± 10; Relative colony Forming Efficiency (Hela S3 cells [10]; [16]): 350 ± 50 |
| GCAGCGAAGCAGAGCGAGCA (antisense dG*dC*dA*dG*dC*dG*dA*dA*dG*dC*dA*dG*dA*dG*dC*dG*dA*dG*dC*dA) [AS-II-166-20] | 68.99% | 81.1% | 91.4% | 61.99% | 91.36% | 78.72% | 73.84% | 74.11% | 29.02% | 80.1% |  |
